Reference: patent US20100317524A1, “Sulfonylureas” (Bayer CropScience AG, priority 2005, published 2010)

Columns and labels:
[1] = test system: weed plants such as Sinapis alba, Chrysanthemum segetum, Avena sativa, Stellaria media, Echinochloa crus-galli, Lolium multiflorum, Setaria viridis, Abutilon …; assay: Pre-emergence effect on weeds (greenhouse pot test, visual scoring); assay type: in vivo; details: applied pre-emergence at a rate of 0.3 kg or less of active substance per hectare; visual scoring after 3 to 4 weeks vs untreated controls
Excerpt: Seeds or sections of rhizome from monocot and dicot weed plants were laid out in sandy loam soil in cardboard pots, and covered with soil. The compounds of the invention, formulated as wettable powders or emulsifiable concentrates, were then applied, in the form of aqueous suspensions or emulsions, at various dosages, onto the surface of the covering earth, at an application rate of 600 to 800 l of water per hectare (converted). Following the treatment, the pots were placed in a greenhouse and maintained under good growth conditions for the weeds. Visual scoring of the plant damage or emergence damage was made when the test plants had emerged, after a test time of 3 to 4 weeks, in comparison to untreated controls.

[2] = test system: weed plants such as Sinapis alba, Echinochloa crus-galli, Lolium multiflorum, Chrysanthemum segetum, Setaria viridis, Abutilon theophrasti, Amaranthus …; assay: Post-emergence effect on weeds (greenhouse pot test, visual scoring); assay type: in vivo; details: applied post-emergence (three-leaf stage) at a rate of 0.3 kg or less of active substance per hectare; visual scoring after about 3 to 4 weeks vs untreated controls
Method: Seeds or sections of rhizome from monocot and dicot broadleaf weeds were laid out in sandy loam soil in plastic pots, covered with earth, and cultivated in a greenhouse under good growth conditions. Three weeks after sowing, the test plants were treated at the three-leaf stage. The compounds of the invention, formulated as wettable powders or as emulsion concentrates, were sprayed in different dosages onto the green parts of the plants, at an application rate of 600 to 800 l of water per hectare (converted). After the test plants had stood in the greenhouse under optimum growth conditions for a period of about 3 to 4 weeks, the effect of the products was scored visually in comparison to untreated controls.

| Structure (SMILES) | herbicidal action against weed plants, pre-emergence [1] | herbicidal action against weed plants, post-emergence [2] |
| --- | --- | --- |
| COc1cc(OC)nc(NC(=O)NS(=O)(=O)c2c(I)cccc2OC(C)C)n1 [Compound 1.178] | very good herbicidal action | very good herbicidal action |
| COc1cc(Cl)nc(NC(=O)NS(=O)(=O)c2c(I)cccc2SC)n1 [Compound 1.551] | very good herbicidal action | very good herbicidal action |
| COc1cc(OC)nc(NC(=O)NS(=O)(=O)c2c(I)cccc2OC(C)C(F)(F)F)n1 (stereo not shown) [Compound 1.362] | very good herbicidal action | very good herbicidal action |
| COc1cc(Cl)nc(NC(=O)NS(=O)(=O)c2c(I)cccc2OS(=O)(=O)N(C)C)n1 [Compound 1.510] | very good herbicidal action | very good herbicidal action |
| COc1nc(NC(=O)NS(=O)(=O)c2c(I)cccc2OCC(F)(F)C(F)(F)F)nc(OC)n1 [Compound 1.373] | very good herbicidal action | very good herbicidal action |
| COc1nc(C)nc(NC(=O)NS(=O)(=O)c2c(I)cccc2SC)n1 [Compound 1.390] | very good herbicidal action | very good herbicidal action |
| COc1nc(NC(=O)NS(=O)(=O)c2c(I)cccc2OCC2CC2)nc(OC)n1 [Compound 1.242] | very good herbicidal action | very good herbicidal action |
| COc1ccc(Cl)c(I)c1S(=O)(=O)NC(=O)Nc1nc(C)cc(C)n1 [Compound 1.600] | very good herbicidal action | very good herbicidal action |
| COc1cc(Cl)nc(NC(=O)NS(=O)(=O)c2c(C)cccc2I)n1 [Compound 1.021] | very good herbicidal action | very good herbicidal action |
| COc1cc(OC)nc(NC(=O)NS(=O)(=O)c2c(I)cccc2OCC(C)C)n1 [Compound 1.197] | very good herbicidal action | very good herbicidal action |
| COc1cccc(I)c1S(=O)(=O)NC(=O)Nc1nc(C)cc(C)n1 [Compound 1.154] | very good herbicidal action | very good herbicidal action |
| COc1nc(C)nc(NC(=O)NS(=O)(=O)c2c(I)cccc2OC)n1 [Compound 1.150] | very good herbicidal action | very good herbicidal action |
| Cc1cc(C)nc(NC(=O)NS(=O)(=O)c2c(I)cccc2OS(=O)(=O)N(C)C)n1 [Compound 1.509] | very good herbicidal action | very good herbicidal action |
| COc1nc(NC(=O)NS(=O)(=O)c2c(I)cccc2OC(C)C)nc(OC)n1 [Compound 1.191] | very good herbicidal action | very good herbicidal action |
| COc1cc(OC)nc(NC(=O)NS(=O)(=O)c2c(I)cccc2OS(C)(=O)=O)n1 [Compound 1.463] | very good herbicidal action | very good herbicidal action |
| COc1cc(OC)nc(NC(=O)NS(=O)(=O)c2c(OC)ccc(Cl)c2I)n1 [Compound 1.598] | very good herbicidal action | very good herbicidal action |
| Cc1cc(C)nc(NC(=O)NS(=O)(=O)c2c(I)cccc2OC(F)(F)F)n1 [Compound 1.310] | very good herbicidal action | very good herbicidal action |
| COc1cc(Cl)nc(NC(=O)NS(=O)(=O)c2c(I)cccc2OC(F)F)n1 [Compound 1.330] | very good herbicidal action | very good herbicidal action |
| CCC(C)Oc1cccc(I)c1S(=O)(=O)NC(=O)Nc1nc(C)cc(C)n1 (stereo not shown) [Compound 1.558] | very good herbicidal action | very good herbicidal action |

| Structure (SMILES) | herbicidal action against weed plants, pre-emergence [1] | herbicidal action against weed plants, post-emergence [2] |
| --- | --- | --- |
| COc1cc(Cl)nc(NC(=O)NS(=O)(=O)c2c(I)cccc2OS(C)(=O)=O)n1 [Compound 1.472] | very good herbicidal action | very good herbicidal action |
| COc1nc(C)nc(NC(=O)NS(=O)(=O)c2c(I)cccc2OCC(F)F)n1 [Compound 1.352] | very good herbicidal action | very good herbicidal action |
| CCOc1cccc(I)c1S(=O)(=O)NC(=O)Nc1nc(OC)cc(OC)n1 [Compound 1.164] | very good herbicidal action | very good herbicidal action |
| COc1nc(C)nc(NC(=O)NS(=O)(=O)c2c(I)cccc2OCC(F)(F)C(F)(F)F)n1 [Compound 1.370] | very good herbicidal action | very good herbicidal action |
| CCCCOc1cccc(I)c1S(=O)(=O)NC(=O)Nc1nc(OC)nc(OC)n1 [Compound 1.556] | very good herbicidal action | very good herbicidal action |
| COc1cc(OC)nc(NC(=O)NS(=O)(=O)c2c(I)cccc2OC(F)(F)F)n1 [Compound 1.302] | very good herbicidal action | very good herbicidal action |
| COc1nc(NC(=O)NS(=O)(=O)c2c(I)cccc2C(F)(F)F)nc(OC)n1 [Compound 1.104] | very good herbicidal action | very good herbicidal action |
| Cc1cc(C)nc(NC(=O)NS(=O)(=O)c2c(I)cccc2OS(C)(=O)=O)n1 [Compound 1.471] | very good herbicidal action | very good herbicidal action |
| COc1cc(Cl)nc(NC(=O)NS(=O)(=O)c2c(I)cccc2OCC(F)F)n1 [Compound 1.354] | very good herbicidal action | very good herbicidal action |
| CCCCOc1cccc(I)c1S(=O)(=O)NC(=O)Nc1nc(C)cc(C)n1 [Compound 1.554] | very good herbicidal action | very good herbicidal action |
| COc1nc(NC(=O)NS(=O)(=O)c2c(I)cccc2OS(=O)(=O)N(C)C)nc(OC)n1 [Compound 1.511] | very good herbicidal action | very good herbicidal action |
| CCC(C)Oc1cccc(I)c1S(=O)(=O)NC(=O)Nc1nc(C)nc(OC)n1 (stereo not shown) [Compound 1.557] | very good herbicidal action | very good herbicidal action |
| Cc1cc(C)nc(NC(=O)NS(=O)(=O)c2c(I)cccc2OCC2CC2)n1 [Compound 1.237] | very good herbicidal action | very good herbicidal action |
| CCCOc1cccc(I)c1S(=O)(=O)NC(=O)Nc1nc(OC)cc(OC)n1 [Compound 1.171] | very good herbicidal action | very good herbicidal action |
| COc1cc(Cl)nc(NC(=O)NS(=O)(=O)c2c(I)cccc2OC)n1 [Compound 1.155] | very good herbicidal action | very good herbicidal action |
| COc1cc(Cl)nc(NC(=O)NS(=O)(=O)c2c(F)cccc2I)n1 [Compound 1.004] | very good herbicidal action | very good herbicidal action |
| COc1cc(Cl)nc(NC(=O)NS(=O)(=O)c2c(I)cccc2OCC(F)(F)C(F)(F)F)n1 [Compound 1.372] | very good herbicidal action | very good herbicidal action |
| COc1cc(OC)nc(NC(=O)NS(=O)(=O)c2c(C)cccc2I)n1 [Compound 1.012] | very good herbicidal action | very good herbicidal action |
| CCC(C)Oc1cccc(I)c1S(=O)(=O)NC(=O)Nc1nc(OC)nc(OC)n1 (stereo not shown) [Compound 1.560] | very good herbicidal action | very good herbicidal action |
